Patent publication US11034715B2, “Ectonucleotidase inhibitors and methods of use thereof” (Calithera Biosciences, Inc., priority 2016, dated 2021)

How the values were obtained:
[1] = biological target: recombinant CD73 (Homo sapiens (Human), UniProt P21589); test: Inhibition of the CD73 enzyme in vitro (soluble recombinant CD73, AMP, Malachite Green); format: biochemical; conditions: recombinant CD73 0.5 nM, AMP 50 μM, 30 minutes at room temperature
Protocol: The concentration of inorganic phosphate was determined using a phosphate standard curve.

[2] = biological target: endogenous, cell-bound CD73 on SK-MEL-28 cells (Homo sapiens (Human), UniProt P21589); test: Inhibition of endogenous, cell-bound CD73 enzyme activity in SK-MEL-28 cells (AMP, Malachite Green); format: cell-based; conditions: 100 μM AMP, 30 minutes at room temperature
Protocol: The day before the experiment, 5000 cells were plated per well in a 96-well plate. Cells were washed twice with 200 μL reaction buffer (20 mM HEPES, pH 7.4, 125 mM NaCl, 1 mM KCl, 2 mM MgCl2, 10 mM glucose) to remove residual inorganic phosphate. After washing, assays contained serial dilutions of test compounds and 100 μM of AMP in a total volume of 200 μL reaction buffer, with a final DMSO concentration ≤0.5%. After 30 minutes at room temperature, supernatant was removed from the cells. […] The concentration of inorganic phosphate was determined using a phosphate standard curve to determine IC50.

Sequence of endogenous, cell-bound CD73 on SK-MEL-28 cells (P21589 27-574): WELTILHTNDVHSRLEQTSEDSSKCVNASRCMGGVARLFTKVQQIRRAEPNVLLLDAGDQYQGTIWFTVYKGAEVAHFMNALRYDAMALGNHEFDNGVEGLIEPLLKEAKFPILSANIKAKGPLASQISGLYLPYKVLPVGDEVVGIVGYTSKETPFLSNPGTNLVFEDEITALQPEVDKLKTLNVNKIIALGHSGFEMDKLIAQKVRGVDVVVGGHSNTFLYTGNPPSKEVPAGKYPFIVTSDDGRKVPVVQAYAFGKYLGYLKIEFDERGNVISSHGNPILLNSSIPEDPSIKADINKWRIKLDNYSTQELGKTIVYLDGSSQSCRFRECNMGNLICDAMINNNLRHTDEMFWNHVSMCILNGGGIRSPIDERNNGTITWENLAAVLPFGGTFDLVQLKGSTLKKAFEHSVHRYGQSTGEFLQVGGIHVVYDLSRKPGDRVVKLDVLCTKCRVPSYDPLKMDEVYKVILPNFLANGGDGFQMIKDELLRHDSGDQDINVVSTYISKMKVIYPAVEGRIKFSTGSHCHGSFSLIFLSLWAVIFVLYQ
Sequence of recombinant CD73 (P21589 27-547): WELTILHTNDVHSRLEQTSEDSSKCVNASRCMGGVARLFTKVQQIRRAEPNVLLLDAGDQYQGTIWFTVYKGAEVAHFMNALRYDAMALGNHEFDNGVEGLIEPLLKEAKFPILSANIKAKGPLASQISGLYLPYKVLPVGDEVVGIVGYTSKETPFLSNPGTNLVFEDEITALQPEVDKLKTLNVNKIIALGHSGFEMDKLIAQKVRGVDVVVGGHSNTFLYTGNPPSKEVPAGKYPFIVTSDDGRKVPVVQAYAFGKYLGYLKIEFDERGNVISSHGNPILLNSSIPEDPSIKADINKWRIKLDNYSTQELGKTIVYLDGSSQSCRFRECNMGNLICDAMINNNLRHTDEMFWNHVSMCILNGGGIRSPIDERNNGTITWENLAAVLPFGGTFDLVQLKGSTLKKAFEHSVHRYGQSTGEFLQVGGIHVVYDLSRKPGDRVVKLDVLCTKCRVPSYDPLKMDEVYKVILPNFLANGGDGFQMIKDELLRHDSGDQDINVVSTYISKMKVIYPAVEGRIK

Nc1nc(Cl)nc2c1ncn2[C@@H]1O[C@H](COC(Cc2ccc(Cl)c(Cl)c2)(C(=O)O)C(=O)O)[C@@H](O)[C@@H]1F [compound 128]
IC50 [1]: 258 nM
IC50 [2]: 827 nM
